Test system: endogenous Haspin kinase (phosphorylation of Histone H3 on Thr3) in U2OS cells
Assay: H3T3ph immunofluorescence assay in U2OS cells (cellular endogenous Haspin activity)
Assay type: cell-based
Settings: 1 μM, 16 h, positive control
Procedure: In order to assess the ability of our most interesting compounds to inhibit cellular endogenous Haspin kinase, we evaluated their effects on the phosphorylation of Histone H3 on Thr3, a bona fide Haspin substrate (Figure 4). We treated osteosarcoma U2OS cells with 2.5 μM of selected compounds for 16 h before quantifying H3T3 phosphorylation by immunofluorescence on early mitotic cells (Figure 4A,B). […] This discrepency could be explained by the inability of this compound to cross the plasma membrane or by reduced stability in a cellular environment.
Ethical approval for this study was obtained (9 July 2025) from DGRI-LabOGM (APPROVAL NUMBER: L1-2373). U2OS cells (purchased from ATCC, Manassas, VA, USA, reference HTB-96) were grown in DMEM medium (Dulbecco’s Modified Eagle Medium, High glucose; GlutaMAX, Life Technologies, Carlsbad, CA, USA) supplemented with 10% fetal bovine serum (Gibco, Grand Island, NY, USA) in a 5% CO2 humidified atmosphere. Cells grown on coverslips were treated for 16 h with each compound or 0.025% DMSO, then fixed with 4% paraformaldehyde in PBS, permeabilized by 0.15% Triton-X100 for 2 min, and blocked for 12 min in 4% BSA in PBS. Immunofluorescence assay was performed using standard protocols with a rabbit anti-phospho-Thr3 Histone H3 and a mouse anti-a-Tubulin (B-5-1-2) obtained from Merck Millipore, Burlington, MA, USA (1/2000 dilution). Coverslips were mounted with Vectashield containing DAPI (Vector Laboratories, Newark, CA, USA). Images were acquired with a Coolsnap HQ2 CCD camera (Photometrics, Tucson, AZ, USA) on a Zeiss Axio microscope (Carl Zeiss, Oberkochen, Germany) using a 63x NA 1.46 objective. Image acquisition and processing were performed using Zen Blue (Carl Zeiss). The H3T3ph signal on chromosomes was normalized against the DAPI signal and analyzed using ImageJ software (NIH, Version 1.54p). Graphs were produced and statistical analysis was performed using GraphPad Prism 10. p-values were determined by t-test; n.s., not significant; **** p ≤ 0.0001.
Figure 4 Evaluation of selected compounds on cellular endogenous Haspin activity. (A) U2OS cells were treated with 2.5 μM of each compound or 1 μM of CHR6494 (CHR) or DMSO for 16 h. Immunofluorescence assay was performed with anti-pH3T3 antibody (green) and anti-a-Tubulin (red); DNA was labelled with DAPI (blue). Representative images of early mitotic cells for each condition are presented. Scale bar: 5 μm. (B) Scatter plot representing H3T3ph/DAPI signal ratio indicative of Haspin activity; n > 17 mitotic cells per condition. n.s., not significant; **** p ≤ 0.0001.

Q: How did the “Effect on endogenous Haspin activity (H3T3 phosphorylation)” value turn out when `CCCNc1ccc2ncc(-c3ccc4[nH]ncc4c3)n2n1` [CHR-6494, reference compound] was run?
A: abolished Haspin activity

Reference: article PMC12655252, “Synthesis of 1H-Pyrrolo[3,2-g]isoquinoline Derivatives as Ligands Targeting Haspin Kinase” (Molecules, 2025)
